Assay results: the supplement of paper PMC11208160
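Also: IS621 recombinase and bridge RNA in Escherichia coli cells.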

Test: recombinant barcode read abundance after kanamycin selection (control-corrected) (log10(CPM+1)); higher = more efficient recombination; sequences stand for … in AGTGCAGAGAAAATCGGCCAGTTTTCTCTGCCTGCAGTCCGCATGCCGT…AGATTTATGCAGCGGACTGCCTTTCTCCCAAAGTGATAAACCGGACAGTATCATGGACCGGTTTTCCCGGTAATCCGTATTTGCAAGGTTGGTTTCACT; site = the 11-nt target
Summary of the method: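 The screen was pooled in E. coli and paired targets with IS621 bridge RNA target-binding loops. Recombination efficiency is taken from barcode counts per million at recombinant junctions, averaged and adjusted against the control. Values, in the form log10(CPM+1), come from duplicate plating on chloramphenicol/ampicillin LB agar or on chloramphenicol/ampicillin/kanamycin with 0.1 mM IPTG.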
With “GGGAACACTTGGGTTCTAACCTGTTGCCA (site GGGAACACTTG)” the “recombinant barcode read abundance (log10)” value was 1.74.
For “GGGAACACTTGGGTTCTAACCTGTTGCCA (site GGGCACACTTG)”, the “recombinant barcode read abundance (log10)” value was 0.11.
For “GGGAACCCTTGGGTTCTAACCTGTTGCAT (site AGGAACTCTAT)”, the “recombinant barcode read abundance (log10)” value was 0.115.
In the case of “GGGAACCCTTGGGTTCTAACCTGTTGCAT (site GGGAACCCTAT)”, the “recombinant barcode read abundance (log10)” value is reported as 1.96.
In the case of “GGGACGACTTGGGTTCTAACCTGTTGCTT (site GGGACGACTAA)”, the “recombinant barcode read abundance (log10)” value is reported as 1.04.
For “GGGACGACTTGGGTTCTAACCTGTTGCTT (site GGGACGACTTA)”, the “recombinant barcode read abundance (log10)” value was 0.0442.
In the case of “GGGACTACTTGGGTTCTAACCTGTTGCCG (site ACTCGCTCTGT)”, the “recombinant barcode read abundance (log10)” value is reported as 0.0845.
For “GGGACTACTTGGGTTCTAACCTGTTGCCG (site GGGACTACTCG)”, the “recombinant barcode read abundance (log10)” value was 0.876.
In the case of “GGGATCCCTTGGGTTCTAACCTGTTGCGG (site CTCGAATCTAA)”, the “recombinant barcode read abundance (log10)” value is reported as 0.024.
With “GGGATCCCTTGGGTTCTAACCTGTTGCGG (site GGGATCCCTCC)” the “recombinant barcode read abundance (log10)” value was 2.
For “GGGCAGTCTTGGGTTCTAACCTGTTGCCG (site GGGCAGTCTCG)”, the “recombinant barcode read abundance (log10)” value was 1.78.
For “GGGCAGTCTTGGGTTCTAACCTGTTGCCG (site GGGGCGTCTCG)”, the “recombinant barcode read abundance (log10)” value was 0.14.
With “GGGCCCGCTTGGGTTCTAACCTGTTGCCT (site GGGCCCGCTAG)” the “recombinant barcode read abundance (log10)” value was 1.84.
In the case of “GGGCCCGCTTGGGTTCTAACCTGTTGCCT (site GGGCCTGCTAG)”, the “recombinant barcode read abundance (log10)” value is reported as 0.154.
In the case of “GGGCCTGCTTGGGTTCTAACCTGTTGCCT (site GGGCCCGCTAG)”, the “recombinant barcode read abundance (log10)” value is reported as 0.645.
With “GGGCCTGCTTGGGTTCTAACCTGTTGCCT (site GGGCCTGCTAG)” the “recombinant barcode read abundance (log10)” value was 2.1.
For “GGGGAAGCTTGGGTTCTAACCTGTTGCCT (site GAGGAAGCTAG)”, the “recombinant barcode read abundance (log10)” value was 0.276.
With “GGGGAAGCTTGGGTTCTAACCTGTTGCCT (site GCGGAAGCTAG)” the “recombinant barcode read abundance (log10)” value was 0.343.
For “GGGGAAGCTTGGGTTCTAACCTGTTGCCT (site GGGGAAGCTAG)”, the “recombinant barcode read abundance (log10)” value was 1.73.
In the case of “GGGGAAGCTTGGGTTCTAACCTGTTGCCT (site GTGGAAGCTAG)”, the “recombinant barcode read abundance (log10)” value is reported as 0.291.
For “GGGGATCCTTGGGTTCTAACCTGTTGCGA (site GGGGAGCCTCC)”, the “recombinant barcode read abundance (log10)” value was 0.00823.
For “GGGGATCCTTGGGTTCTAACCTGTTGCGA (site GGGGATCCTTC)”, the “recombinant barcode read abundance (log10)” value was 2.06.
For “GGGGATTCTTGGGTTCTAACCTGTTGCCT (site GGGGATTCTAG)”, the “recombinant barcode read abundance (log10)” value was 2.05.
For “GGGGATTCTTGGGTTCTAACCTGTTGCCT (site GTGGATGCTAG)”, the “recombinant barcode read abundance (log10)” value was 0.0823.
With “GGGGCCTCTTGGGTTCTAACCTGTTGCAA (site AGGGCCTCTCT)” the “recombinant barcode read abundance (log10)” value was 0.474.
For “GGGGCCTCTTGGGTTCTAACCTGTTGCAA (site GGGGCCTCTTT)”, the “recombinant barcode read abundance (log10)” value was 2.56.
In the case of “GGGGCCTCTTGGGTTCTAACCTGTTGCTG (site GGAGCCTCTGA)”, the “recombinant barcode read abundance (log10)” value is reported as 0.0595.
In the case of “GGGGCCTCTTGGGTTCTAACCTGTTGCTG (site GGGGCCTCTCA)”, the “recombinant barcode read abundance (log10)” value is reported as 3.02.
For “GGGGCTACTTGGGTTCTAACCTGTTGCAC (site GGGGCTACTAG)”, the “recombinant barcode read abundance (log10)” value was 0.58.
In the case of “GGGGCTACTTGGGTTCTAACCTGTTGCAC (site GGGGCTACTGT)”, the “recombinant barcode read abundance (log10)” value is reported as 2.62.
For “GGGGCTTCTTGGGTTCTAACCTGTTGCTT (site GGGGCATCTAA)”, the “recombinant barcode read abundance (log10)” value was 0.129.
In the case of “GGGGCTTCTTGGGTTCTAACCTGTTGCTT (site GGGGCCTCTAA)”, the “recombinant barcode read abundance (log10)” value is reported as 0.762.
In the case of “GGGGCTTCTTGGGTTCTAACCTGTTGCTT (site GGGGCGTCTAA)”, the “recombinant barcode read abundance (log10)” value is reported as 0.343.
For “GGGGCTTCTTGGGTTCTAACCTGTTGCTT (site GGGGCTTCTAA)”, the “recombinant barcode read abundance (log10)” value was 0.913.
With “GGGGTAACTTGGGTTCTAACCTGTTGCCT (site GGGACAACTAG)” the “recombinant barcode read abundance (log10)” value was 0.0486.
In the case of “GGGGTAACTTGGGTTCTAACCTGTTGCCT (site GGGGTAACTAG)”, the “recombinant barcode read abundance (log10)” value is reported as 0.58.
In the case of “GGGGTCCCTTGGGTTCTAACCTGTTGCCA (site GAGATCCCTTG)”, the “recombinant barcode read abundance (log10)” value is reported as 0.247.
For “GGGGTCCCTTGGGTTCTAACCTGTTGCCA (site GGGGTCCCTTG)”, the “recombinant barcode read abundance (log10)” value was 1.8.
For “GGGTACACTTGGGTTCTAACCTGTTGCTA (site AGGTAGACTTA)”, the “recombinant barcode read abundance (log10)” value was 0.0922.
For “GGGTACACTTGGGTTCTAACCTGTTGCTA (site GGGTACACTTA)”, the “recombinant barcode read abundance (log10)” value was 2.12.
For “GGGTACCCTTGGGTTCTAACCTGTTGCCT (site GAGTACCCTAG)”, the “recombinant barcode read abundance (log10)” value was 0.584.
For “GGGTACCCTTGGGTTCTAACCTGTTGCCT (site GCGTACCCTAG)”, the “recombinant barcode read abundance (log10)” value was 0.126.
In the case of “GGGTACCCTTGGGTTCTAACCTGTTGCCT (site GGGTACCCTAG)”, the “recombinant barcode read abundance (log10)” value is reported as 1.99.
In the case of “GGGTACCCTTGGGTTCTAACCTGTTGCCT (site GTGTACCCTAG)”, the “recombinant barcode read abundance (log10)” value is reported as 0.133.
In the case of “GGGTCGGCTTGGGTTCTAACCTGTTGCGC (site GGGTCGGCTAC)”, the “recombinant barcode read abundance (log10)” value is reported as 0.0769.
With “GGGTCGGCTTGGGTTCTAACCTGTTGCGC (site GGGTCGGCTCC)” the “recombinant barcode read abundance (log10)” value was 0.0276.
For “GGGTCGGCTTGGGTTCTAACCTGTTGCGC (site GGGTCGGCTGC)”, the “recombinant barcode read abundance (log10)” value was 1.88.
In the case of “GGGTCGGCTTGGGTTCTAACCTGTTGCGC (site GGGTCGGCTTC)”, the “recombinant barcode read abundance (log10)” value is reported as 0.0981.
For “GGGTCGGCTTGGGTTCTAACCTGTTGCGG (site GGGTCGGCTAC)”, the “recombinant barcode read abundance (log10)” value was 0.147.
With “GGGTCGGCTTGGGTTCTAACCTGTTGCGG (site GGGTCGGCTCC)” the “recombinant barcode read abundance (log10)” value was 2.44.
In the case of “GGGTCGGCTTGGGTTCTAACCTGTTGCGG (site GGGTCGGCTGC)”, the “recombinant barcode read abundance (log10)” value is reported as 0.0285.
With “GGGTCGGCTTGGGTTCTAACCTGTTGCGG (site GGGTCGGCTTC)” the “recombinant barcode read abundance (log10)” value was 0.609.
For “GGGTCGGCTTGGGTTCTAACCTGTTGCTG (site GGGTCGGCTCA)”, the “recombinant barcode read abundance (log10)” value was 1.91.
With “GGGTCGGCTTGGGTTCTAACCTGTTGCTG (site GTCTCGGCTCA)” the “recombinant barcode read abundance (log10)” value was 0.0584.
In the case of “GGTAAATCTTGGGTTCTAACCTGTTGCCT (site GGTAAATCTAG)”, the “recombinant barcode read abundance (log10)” value is reported as 0.459.
In the case of “GGTAAATCTTGGGTTCTAACCTGTTGCCT (site GGTAAGTCTAG)”, the “recombinant barcode read abundance (log10)” value is reported as 0.359.
In the case of “GGTAACCCTTGGGTTCTAACCTGTTGCGG (site GGTAACCCTCC)”, the “recombinant barcode read abundance (log10)” value is reported as 2.24.
For “GGTAACCCTTGGGTTCTAACCTGTTGCGG (site GGTCACCCTCC)”, the “recombinant barcode read abundance (log10)” value was 0.0921.
With “GGTAACCCTTGGGTTCTAACCTGTTGCGG (site GGTGACCCTCC)” the “recombinant barcode read abundance (log10)” value was 0.106.
With “GGTAACCCTTGGGTTCTAACCTGTTGCGG (site GGTTACCCTCC)” the “recombinant barcode read abundance (log10)” value was 0.425.
For “GGTAAGACTTGGGTTCTAACCTGTTGCGG (site GCTAAGACTCA)”, the “recombinant barcode read abundance (log10)” value was 0.0264.
In the case of “GGTAAGACTTGGGTTCTAACCTGTTGCGG (site GGTAAGACTCC)”, the “recombinant barcode read abundance (log10)” value is reported as 1.64.
In the case of “GGTACTCCTTGGGTTCTAACCTGTTGCGT (site GGTACGCCTAC)”, the “recombinant barcode read abundance (log10)” value is reported as 0.18.
With “GGTACTCCTTGGGTTCTAACCTGTTGCGT (site GGTACTCCTAC)” the “recombinant barcode read abundance (log10)” value was 0.913.
For “GGTAGGACTTGGGTTCTAACCTGTTGCGG (site AGTAGGCCTCC)”, the “recombinant barcode read abundance (log10)” value was 0.0127.
With “GGTAGGACTTGGGTTCTAACCTGTTGCGG (site GGTAGGACTCC)” the “recombinant barcode read abundance (log10)” value was 2.
In the case of “GGTATAACTTGGGTTCTAACCTGTTGCCA (site ACACCCTCTCT)”, the “recombinant barcode read abundance (log10)” value is reported as 0.124.
For “GGTATAACTTGGGTTCTAACCTGTTGCCA (site GGTATAACTTG)”, the “recombinant barcode read abundance (log10)” value was 0.132.
With “GGTCCCGCTTGGGTTCTAACCTGTTGCCA (site GGGCCCGCTTA)” the “recombinant barcode read abundance (log10)” value was 0.485.
In the case of “GGTCCCGCTTGGGTTCTAACCTGTTGCCA (site GGTCCCGCTTG)”, the “recombinant barcode read abundance (log10)” value is reported as 1.77.
With “GGTCGAGCTTGGGTTCTAACCTGTTGCCT (site GGTCGAGCTAG)” the “recombinant barcode read abundance (log10)” value was 1.13.
With “GGTCGAGCTTGGGTTCTAACCTGTTGCCT (site GGTCGCGCTAG)” the “recombinant barcode read abundance (log10)” value was 0.0193.
With “GGTCGAGCTTGGGTTCTAACCTGTTGCCT (site GGTCGGGCTAG)” the “recombinant barcode read abundance (log10)” value was 0.146.
With “GGTCGAGCTTGGGTTCTAACCTGTTGCCT (site GGTCGTGCTAG)” the “recombinant barcode read abundance (log10)” value was 0.671.
For “GGTCGTGCTTGGGTTCTAACCTGTTGCCT (site GGTCGAGCTAG)”, the “recombinant barcode read abundance (log10)” value was 0.304.
In the case of “GGTCGTGCTTGGGTTCTAACCTGTTGCCT (site GGTCGCGCTAG)”, the “recombinant barcode read abundance (log10)” value is reported as 0.
With “GGTCGTGCTTGGGTTCTAACCTGTTGCCT (site GGTCGGGCTAG)” the “recombinant barcode read abundance (log10)” value was 0.106.
